# Measured values reported in publication PMC11274128, “Modification and Synergistic Studies of a Novel Frog Antimicrobial Peptide against Pseudomonas aeruginosa Biofilms” (Antibiotics, 2024).
# Where two headings read alike, the source gives them in different places. Bridge positions count the residues as written; N and C are the ends. Peptide text beside a SMILES is read from it.
# Key:
# [1] = tested on: S. aureus (ATCC 6538); experiment: microbe, parasite or virus in culture; type: cell-based, Staphylococcus aureus; details: planktonic S. aureus ATCC 6538; for MIC: 37 °C, nine repeats of three independent experiments, read-out: MIC; for MBC: lowest concentration killing 99.9% of inoculum, read-out: MBC
# Description: (§1) The minimum inhibitory concentration (MIC) is the minimum concentration of an antimicrobial agent that prevents the visible growth of a bacterium or bacteria. The MIC is an important piece of data for research on new antimicrobial agents and helps in the effective selection of antibiotics to improve the success of treatment. The minimum bactericidal concentration (MBC) is defined as the lowest antibiotic concentration that kills 99.9% of the inoculum. This study mainly contained eight different microorganisms, which were Staphylococcus aureus (ATCC 6538), methicillin-resistant Staphylococcus aureus (NCTC 12493), Enterococcus faecalis (NCTC 12697), Escherichia coli (ATCC 8739), Klebsiella pneumoniae (ATCC 43816), Pseudomonas aeruginosa (ATCC CRM 9027), Acinetobacter baumannii (BAA 747), and Candida albicans (ATCC 10231). The bacteria were incubated in the compatible medium at 37 °C overnight.
# [2] = tested on: MRSA (NCTC 12493); experiment: microbe, parasite or virus in culture; type: cell-based, methicillin-resistant Staphylococcus aureus; details: planktonic MRSA NCTC 12493; for MIC: 37 °C, nine repeats of three independent experiments; for MBC: lowest concentration killing 99.9% of inoculum
# Description: as §1
# [3] = tested on: E. coli (ATCC 8739); experiment: microbe, parasite or virus in culture; type: cell-based, Escherichia coli; details: planktonic E. coli ATCC 8739; for MIC: 37 °C, nine repeats of three independent experiments, read-out: MIC; for MBC: lowest concentration killing 99.9% of inoculum, read-out: MBC
# Description: as §1
# [4] = tested on: K. pneumoniae (ATCC 43816); experiment: microbe, parasite or virus in culture; type: cell-based, Klebsiella pneumoniae; details: planktonic K. pneumoniae ATCC 43816; for MIC: 37 °C, nine repeats of three independent experiments; for MBC: lowest concentration killing 99.9% of inoculum
# Description: as §1
# [5] = tested on: P. aeruginosa (ATCC CRM 9027); experiment: microbe, parasite or virus in culture; type: cell-based, Pseudomonas aeruginosa; details: planktonic P. aeruginosa ATCC CRM 9027; for MIC: 37 °C, nine repeats of three independent experiments; for MBC: lowest concentration killing 99.9% of inoculum
# Description: as §1
# [6] = tested on: A. baumannii (BAA 747); experiment: microbe, parasite or virus in culture; type: cell-based, Acinetobacter baumannii; details: planktonic A. baumannii BAA 747; for MIC: 37 °C, nine repeats of three independent experiments; for MBC: lowest concentration killing 99.9% of inoculum
# Description: as §1
# [7] = tested on: C. albicans (ATCC 10231); type: cell-based, Candida albicans; details: yeast C. albicans ATCC 10231; for MIC: 37 °C, nine repeats of three independent experiments; for MBC: lowest concentration killing 99.9% of inoculum
# Description: as §1
# [8] = tested on: G− Bacteria; experiment: Geometric mean of MICs and TI value; type: cell-based; details: geometric mean of MICs against tested Gram-negative bacteria
# Experimental: The therapeutic potential of antimicrobial agents was valued based on their selectivity toward bacteria in reference to erythrocytes. The TI value was calculated from the results of antibacterial and haemolysis experiments of peptides using the following formula:TI value = HC10 / GMMICs.
# GM was the geometric mean of MICs against all tested bacteria.
# [9] = tested on: E. faecalis NCTC 12697 biofilm; type: cell-based, Enterococcus faecalis; details: for MBIC: lowest concentration inhibiting at least 90% of biofilm formation; for MBEC: minimum concentration eradicating at least 99% of the biofilm
# Description: (§2) The minimum bactericidal concentration (MBC) is defined as the lowest antibiotic concentration that kills 99.9% of the inoculum. The minimum biofilm inhibitory concentration (MBIC) is the lowest concentration that inhibits at least 90% of the formation of biofilm. The minimum biofilm eradication concentration (MBEC) is the minimum concentration that can eradicate at least 99% of the biofilm. In addition to the eight microorganisms described previously, this experiment was also applied to P. aeruginosa (ATCC 27853, ATCC BAA-2108, P. aeruginosa 01, P. aeruginosa 14).
# [10] = tested on: P. aeruginosa 01 biofilm; type: cell-based, Pseudomonas aeruginosa; details: for MBIC: lowest concentration inhibiting at least 90% of biofilm formation; for MBEC: minimum concentration eradicating at least 99% of the biofilm
# Description: as §2
# [11] = tested on: P. aeruginosa 14 biofilm; type: cell-based, Pseudomonas aeruginosa; details: for MBIC: lowest concentration inhibiting at least 90% of biofilm formation; for MBEC: minimum concentration eradicating at least 99% of the biofilm
# Description: as §2
# [12] = tested on: P. aeruginosa ATCC 27853 biofilm; type: cell-based, Pseudomonas aeruginosa; details: for MBIC: lowest concentration inhibiting at least 90% of biofilm formation; for MBEC: minimum concentration eradicating at least 99% of the biofilm
# Description: as §2
# [13] = tested on: P. aeruginosa ATCC BAA-2108 biofilm; type: cell-based, Pseudomonas aeruginosa; details: for MBIC: lowest concentration inhibiting at least 90% of biofilm formation; for MBEC: minimum concentration eradicating at least 99% of the biofilm
# Description: as §2
# [14] = tested on: P. aeruginosa ATCC CRM 9027 biofilm; type: cell-based, Pseudomonas aeruginosa; details: for MBIC: lowest concentration inhibiting at least 90% of biofilm formation; for MBEC: minimum concentration eradicating at least 99% of the biofilm
# Description: as §2
# [15] = tested on: A. baumannii BAA 747 biofilm; type: cell-based, Acinetobacter baumannii; details: for MBIC: lowest concentration inhibiting at least 90% of biofilm formation; for MBEC: minimum concentration eradicating at least 99% of the biofilm
# Description: as §2
# [16] = tested on: P. aeruginosa ATCC CRM 9027 biofilm; experiment: Peptide and antibiotic co-administration MBIC checkerboard assay; type: cell-based, Pseudomonas aeruginosa; details: 24 h, crystal violet, 595 nm
# Description: The plate was then carefully cleaned under running water.
# [17] = tested on: P. aeruginosa 01 biofilm; details: checkerboard MBIC, 24 h, crystal violet, 595 nm
# Experimental: Parameter fractional inhibitory concentration indices (FICIs) were used to evaluate the synergistic effect, and the value of that was calculated as follows:FICI = FICa + FICb FICa = MIC combination peptide/MIC single peptide FICb = MIC combination antibiotic/MIC single antibiotic
# The FICI value was interpreted as “synergy” (FICI ≤ 0.5), “no interaction” (0.5 < FICI ≤ 4), or “antagonism” (FICI > 4).
# The bacteria were also cultured, subcultured, diluted, and incubated as the methods of the MBIC assay. All experimental groups were included in a peptide and antibiotic co-administration of MIC assay. To ensure that the mixture was evenly dispersed, the plate was placed in a shaker and incubated for 24 h at 37 and 220× g. The plate was twice rinsed with 200 µL of PBS solution following a 24 h incubation period with peptides and diluted bacterial cultures. Each well received a separate addition of 100 μL of methanol and 0.1% crystal violet solution (Sigma-Aldrich, London, UK), which was left there for 20 min. The plate was then carefully cleaned under running water. Following the drying process, each well received 160 µL of acetic acid (33% in dd water, Sigma-Aldrich, UK). Additionally, the absorbance was measured at λ = 595 nm using the Synergy HT plate reader. FICI values were calculated and identified for our peptide and antibiotic co-administration of MIC assay.
# [18] = peptide combined with gentamicin
Compound,MIC [1] [µM],MBC [1] [µM],MIC [2] [µM],MBC [2] [µM],MIC [3] [µM],MBC [3] [µM],MIC [4] [µM],MBC [4] [µM],MIC [7] [µM],MBC [7] [µM],"GM (geometric mean of MICs), G− Bacteria [8] [µM]",MBIC [9],MBEC [9],MBIC [10],MBEC [10],MBIC [11],MBEC [11],MBIC [12],MBEC [12],MBIC [13],further results
CC[C@H](C)[C@H](NC(=O)[C@H](CCCCN)NC(=O)[C@H](CCCCN)NC(=O)CNC(=O)[C@H](C)NC(=O)CNC(=O)[C@H](CC(C)C)NC(=O)[C@@H](NC(=O)CNC(=O)[C@H](CO)NC(=O)[C@H](CC(C)C)NC(=O)[C@H](CC(C)C)NC(=O)CN)C(C)C)C(=O)N[C@H](C(=O)N[C@H]1CSSC[C@@H](C(=O)O)NC(=O)[C@H](CCCNC(=N)N)NC(=O)CNC(=O)[C@H](CO)NC(=O)[C@H](CC(C)C)NC(=O)CNC1=O)C(C)C [Nigrosin-6VL] (H-GLLSGVLGAGKKIVCGLSGRC-OH; disulfide 15-21),16,32,> 128,> 128,64,128,128,128,128,> 128,90.51,>128/>128 µM,>128/>128 µM,>128/>128 µM,>128/>128 µM,>128/>128 µM,>128/>128 µM,>128/>128 µM,>128/>128 µM,>128/>128 µM,"MIC ([5]; read-out: MIC): 32 µM; MBC ([5]; read-out: MBC): 128 µM; MIC [6]: > 128 µM; MBC [6]: > 128 µM; MBEC [13]: >128/>128 µM; MBIC [14]: >128/>128 µM; MBEC [14]: >128/>128 µM; MBIC [15]: >128/>128 µM; MBEC [15]: >128/>128 µM; Biofilm FICI ([16]; peptide combined with cefepime): 0.3125; Biofilm FICI [16, 18]: 0.5; Biofilm FICI ([17]; peptide combined with cefepime): 0.625; Biofilm FICI [17, 18]: 0.625"
CC[C@H](C)[C@H](NC(=O)[C@H](CCCCN)NC(=O)[C@H](CCCCN)NC(=O)CNC(=O)[C@H](C)NC(=O)[C@H](CCCNC(=N)N)NC(=O)[C@H](CC(C)C)NC(=O)[C@@H](NC(=O)[C@H](C)NC(=O)[C@H](CCCNC(=N)N)NC(=O)[C@H](CC(C)C)NC(=O)[C@H](CC(C)C)NC(=O)CN)C(C)C)C(=O)N[C@H](C(=O)N[C@H]1CSSC[C@@H](C(=O)O)NC(=O)[C@H](CCCNC(=N)N)NC(=O)CNC(=O)[C@H](CO)NC(=O)[C@H](CC(C)C)NC(=O)CNC1=O)C(C)C [Peptide 2170-2R] (H-GLLRAVLRAGKKIVCGLSGRC-OH; disulfide 15-21),4,8,16,16,4,8,32,32,64,128,11.31,32 µM,> 128 µM,32 µM,64 µM,>128/>128 µM,>128/>128 µM,8 µM,16 µM,>128/>128 µM,"MIC [5]: 32 µM; MBC [5]: 32 µM; MIC ([6]; read-out: MIC): 4 µM; MBC ([6]; read-out: MBC): 8 µM; MBEC [13]: >128/>128 µM; MBIC [14]: >128/>128 µM; MBEC [14]: >128/>128 µM; MBIC [15]: 8 µM; MBEC [15]: 16 µM; Biofilm FICI ([16]; peptide combined with cefepime): 0.5; Biofilm FICI [16, 18]: 1; Biofilm FICI ([17]; peptide combined with cefepime): 0.5; Biofilm FICI [17, 18]: 1"
